The values that follow come from paper PMC7144934, “Design, Synthesis and Biological Evaluation of Phenyl Urea Derivatives as IDO1 Inhibitors” (Molecules, 2020).

SMILES strings stand for the structures. “Also recorded” adds a separate entry of the source. Read-outs that look alike come from different tables or passages of the source.

The test system of one data set is IDO1. Further details: method as in PMID 30760888. Conditions: Figure 1; cited from earlier work.
Data set [1] deals with T1, Recombinant human IDO1 (rhIDO1) (Homo sapiens, UniProt P14902).
T1 construct: made in house
The data set can be described thus: Enzyme assay for IDO1 inhibition. In kind it is biochemical. The settings on record: for IC50 / IDO1 inhibitory activity (in words): rhIDO1 enzyme assay; for IC50: 37 °C, 45 min.

Data set [2] addresses T2, Recombinant human TDO (rhTDO) (Homo sapiens, UniProt P48775).
T2 construct: made in house
The data set can be described thus: Enzyme assay for TDO inhibition. In kind it is biochemical. Conditions: 37 °C, 45 min. Here is the method: Recombinant human IDO1 and TDO were expressed and purified according to the reported procedures. The assay was performed according to the literature: A standard reaction mixture (100 µL) containing 100 mM potassium phosphate buffer (pH 6.5), 40 mM ascorbic acid (neutralized with NaOH), 200 µg/mL catalase, 20 µM methylene blue and 0.05 µM rhIDO1 or rhTDO was added to the solution containing the substrate L-tryptophan and the test sample at a determined concentration. The reaction was carried out at 37 °C for 45 min and stopped by adding 20 µL of 30% (w/v) trichloroacetic acid. After heating at 65 °C for 15 min, 100 µL of 2% (w/v) p-dimethylaminobenzaldehyde in acetic acid was added to each well. The yellow pigment derived from kynurenine was measured at 492 nm using a SYNERGY-H1 microplate reader (Biotek Instruments, Inc., Winooski, VT, USA). IC50 was analyzed using the GraphPad Prism 8.0 software (GraphPad Software, San Diego, CA, USA).

A further data set has as its system human IDO1. The arrangement: method as in earlier work. The settings on record: human IDO1/HEK 293 cells; read-out: IDO1 inhibitory activity IC50; cited from earlier work.
Data set [3] is described as follows: Single dose pharmacokinetic study in male C57BL/6 mice. Conditions: for AUC(0-inf): male, C57BL/6, mouse; for MRT inf: read-out: MRT(0–∞); for half-life: read-out: t1/2β (converted). In kind it is in vivo. The method, then:
The animal Care and Welfare Committee of Institute of Materia Medica, Chinese Academy of Medical Sciences approved all animal care, housing, and laboratory procedures. Male C57BL/6 mice were used in the single dose pharmacokinetic studies. Compound i12 was prepared as a 3 mg/mL suspension with 0.5% CMC for oral use and was formulated as a 3 mg/mL solution with 10% DMSO in 20% HP-β-CD for intravenous injection. Sixteen mice were divided into two groups, 10 in the oral group and six in the intravenous group. After fasting 12 h with free access to water, mice were treated with a 3 mg/kg i.v. or 30 mg/kg oral dose of compound i12. Blood samples (50 µL) were collected at 5, 15, 30 min, 1, 2, 4, 6, 8, 12 and 24 h after oral administration and 2, 5, 15, 30 min, 1, 2, 4, 6, 8, 12 and 24 h after intravenous injection. After centrifugation, the plasma samples (20 µL) were precipitated by four volumes of acetonitrile. The supernatant were analyzed by liquid chromatography/tandem mass spectrometry with a Zorbax C18 column (50 mm × 2.1 mm, 3.5 µm). Compound detection was performed with the mass spectrometer in positive ionization mode by t-SIM: m/z 489.209 for compound i12. The pharmacokinetic parameters were calculated with WinNonlin software V6.3 using non-compartmental analysis (Pharsight Corporation, Mountain View, CA, USA).

Data set [4] deals with mouse melanoma cells B16F10. In words: B16F10 subcutaneous xenograft model. In kind it is in vivo, mice. Here is the method:
(§1) The mouse melanoma cells B16F10 were cultured and harvested in saline at 6 × 10^6 cells/0.2 mL volume. Cells (0.2 mL) were injected subcutaneously into male C57BL/6 mice at day 0 of the experiment, and treatment was initiated at day 1 following the mice enrolled randomly in control and experimental groups. For control group, 0.5% CMCNa was orally administered every day. The CTX group were administered CTX intraperitoneally at the dose of 100 mg/kg. Compound i12 was dissolved in 0.5% CMC-Na for oral treatment. After 17 days, the mice were sacrificed and the tumors were stripped and weighted. The tumor growth inhibition (TGI) was calculated as TGI = (1 − tumor weight treatment/tumor weight vehicle) × 100%. The statistical analysis was performed with GraphPad Prism 8.0 software and the significance level was evaluated with one-way ANOVA model.

In data set [5] the test system is mouse pancreatic cancer cells PAN02. In words: PAN02 pancreatic cancer subcutaneous xenograft model. In kind it is in vivo, mice. The method, then: as §1, with “pancreatic cancer” for “melanoma”, “PAN02” for “B16F10”, “60 mg/kg” for “100 mg/kg.”, “15” for “17”
The subject of a further data set is pathway. The arrangement: method as in PMID 30760888. The settings on record: Figure 1; cited from earlier work.
[6] abbreviates: ratio of IDO1 enzyme IC50 values.

T1 sequence (P14902 whole entry): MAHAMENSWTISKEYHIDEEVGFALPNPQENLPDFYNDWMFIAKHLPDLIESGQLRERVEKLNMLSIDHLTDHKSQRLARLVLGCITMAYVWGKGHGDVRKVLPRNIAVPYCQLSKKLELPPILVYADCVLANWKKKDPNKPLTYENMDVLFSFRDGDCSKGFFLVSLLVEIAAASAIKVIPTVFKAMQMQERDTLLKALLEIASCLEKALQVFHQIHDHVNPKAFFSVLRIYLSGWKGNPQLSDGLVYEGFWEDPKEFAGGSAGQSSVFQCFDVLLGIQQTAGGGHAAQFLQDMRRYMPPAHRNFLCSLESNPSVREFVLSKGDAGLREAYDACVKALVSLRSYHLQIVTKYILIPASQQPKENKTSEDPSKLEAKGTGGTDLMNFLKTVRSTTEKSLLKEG
T2 sequence (P48775 whole entry): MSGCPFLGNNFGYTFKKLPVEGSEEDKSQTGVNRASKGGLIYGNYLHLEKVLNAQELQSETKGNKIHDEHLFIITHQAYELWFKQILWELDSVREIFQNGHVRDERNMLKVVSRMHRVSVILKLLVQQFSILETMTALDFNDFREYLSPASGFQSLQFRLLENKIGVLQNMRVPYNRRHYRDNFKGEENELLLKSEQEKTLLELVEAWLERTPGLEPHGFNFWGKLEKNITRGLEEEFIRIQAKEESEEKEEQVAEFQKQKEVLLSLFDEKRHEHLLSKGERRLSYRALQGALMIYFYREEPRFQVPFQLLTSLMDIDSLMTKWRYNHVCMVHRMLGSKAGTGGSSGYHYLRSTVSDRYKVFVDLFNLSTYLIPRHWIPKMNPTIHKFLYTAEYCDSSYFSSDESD

`C[C@@H](C(=O)Nc1ccc(Cl)cc1)C1CCC(c2ccnc3ccc(F)cc23)CC1` (stereo partly shown) [BMS-986205]: the IC50 in the data set with IDO1 is 0.0017 µM.
With `CC(C)CN(CC(C)C)c1ccc(C(CC(=O)O)C(F)(F)F)cc1NC(=O)Nc1ccc(F)cc1F` (stereo not shown) [BMS-E30, reference compound], the IC50 is 8.57 µM in data set [1], greater than 100 µM in [2] and 0.0007 µM in the data set with human IDO1.
Regarding `NS(=O)(=O)NCCNc1nonc1C(=NO)Nc1ccc(F)c(Br)c1` [Epacadostat], the concentration for half-maximal inhibition (IC50) in the data set with IDO1 was […].
Turning to `CC1CC(C)CN(c2ccc(C(CC(=O)O)C(F)(F)F)cc2NC(=O)Nc2ccccc2)C1` (stereo not shown) [i1, 3-[4-(3,5-dimethylpiperidin-1-yl)-3-(3-phenylureido)-phenyl]-4,4,4-trifluorobutyric Acid], the melting point was in the range of 94.1 to 95.7 °C. In addition, the IC50 in data set [1] was found to be 34.1 µM. The IC50 in [2] was greater than 100 µM.
Take `CC1CC(C)CN(c2ccc(C(CC(=O)O)C(F)(F)F)cc2NC(=O)Nc2ccc(C#N)cc2)C1` (stereo not shown) [i12, 3-[3-[3-(4-cyanophenyl)ureido]-4-(3,5-dimethylpiperidin-1-yl)-phenyl]-4,4,4-trifluorobutyric Acid]: the “fold improvement in IDO1 inhibitory activity compared to compound i1” value in [1] (setting [6]) worked out at 100 fold. Besides, in [1], the “IDO1 inhibitory activity (in words)” value is recorded as “more potent IDO1 inhibitory activity than the unsubstituted i1” and the IC50 worked out at 0.331 µM. Further, in data set [2], the IC50 was greater than 100 µM. For the same compound, the “AUC(0–∞)” value in data set [3] (PO 30 mg/kg, 30 mg/kg) is listed as 12,849 h·ng/mL. The AUC(0-inf) in [3] (plasma, iv, 3 mg/kg, IV 3 mg/kg) is 2160 ng·h/mL. In data set [3] (plasma, po, 30 mg/kg, PO 30 mg/kg), the AUC(0-inf) was 11500 ng·h/mL. For the same compound, in data set [3] (mouse, plasma, IV 3 mg/kg), the AUC(0-t) came out at 1320 ng·h/mL, the peak level (Cmax) was 6960 ng/mL, the MRT inf turned out to be 8.6 h and the half-life is 7.17 h. For the same compound, the clearance in [3] (mouse, plasma, IV 3 mg/kg, read-out: Cl (plasma clearance)) is 22.4 mL/min/kg. Besides, the Vd in data set [3] (mouse, plasma, IV 3 mg/kg, read-out: Vss) amounted to 15.8 L/kg. In addition, in data set [3] (mouse, plasma, PO 30 mg/kg), the area under the curve AUC(0-t) amounted to 11500 ng·h/mL, the Cmax was determined as 2700 ng/mL, the Tmax was determined as 2 h and the MRT inf came to 8.18 h. Further, the half-life in [3] (mouse, plasma, PO 30 mg/kg) is 11.2 h. Moreover, in data set [3] (mouse, plasma, PO 30 mg/kg vs IV 3 mg/kg, read-out: F% (oral bioavailability)), the bioavailability was found to be 87.4%. Besides, the “tumor growth inhibition (TGI)” value in [4] (15 mg/kg daily, oral, 17 days, tumor weight) is listed as 40.5%. Besides, the “body weight compared with the control group” value in data set [4] (i12 orally 15, 30 or 100 mg/kg, B16F10 xenograft mice) is “no obvious body weight difference; also recorded: no obvious reduction; also recorded: no significant changes”. In addition, in [5] (30 mg/kg daily, oral, 15 days, tumor weight), the “tumor growth inhibition (TGI)” value was found to be 34.3%. In addition, the “body weight of each group after the treatment” value in data set [5] (i12 orally 10, 30 or 100 mg/kg, PAN02 xenograft mice) is “no obvious body weight difference”.
With `CC1CC(C)CN(c2ccc(C(CC(=O)O)C(F)(F)F)cc2NC(=O)Nc2ccc(Br)cc2)C1` (stereo not shown) [i19, 3-[3-[3-(4-bromophenyl)ureido]-4-(3,5-dimethylpiperidin-1-yl)-phenyl]-4,4,4-trifluorobutyric Acid], the figures for the IC50 in [1] and in data set [2] were 4.08 µM and greater than 100 µM, respectively.
Consider `CCc1ccc(NC(=O)Nc2cc(C(CC(=O)O)C(F)(F)F)ccc2N2CC(C)CC(C)C2)cc1` (stereo not shown) [i20, 3-{4-(3,5-dimethylpiperidin-1-yl)-3-[3-(4-ethylphenyl)ureido]phenyl}-4,4,4-trifluorobutyric Acid], for which the values for the IC50 in data set [1] and in data set [2] were 9.98 µM and greater than 100 µM, respectively.
Regarding `CC1CC(C)CN(c2ccc(C(CC(=O)O)C(F)(F)F)cc2NC(=O)Nc2ccc(C(C)C)cc2)C1` (stereo not shown) [i21, 3-{4-(3,5-dimethylpiperidin-1-yl)-3-[3-(4-isopropylphenyl)ureido]-phenyl}-4,4,4-trifluorobutyric Acid], the “IDO1 inhibitory activity (in words)” value in data set [1] is “loss of activity”. Moreover, the IC50 in [1] and in [2] was greater than 100 µM each time.
Regarding `CC1CC(C)CN(c2ccc(C(CC(=O)O)C(F)(F)F)cc2NC(=O)Nc2ccc(OC(F)(F)F)cc2)C1` (stereo not shown) [i22, 3-{4-(3,5-dimethylpiperidin-1-yl)-3-[3-(4-trifluoromethoxyphenyl)-ureido]phenyl}-4,4,4-trifluorobutyric Acid], the IC50 in data set [1] was 1.32 µM; in data set [2], greater than 100 µM.
For `CC1CC(C)CN(c2ccc(C(CC(=O)O)C(F)(F)F)cc2NC(=O)Nc2ccc(C(F)(F)F)cc2)C1` (stereo not shown) [i23, 3-{4-(3,5-dimethylpiperidin-1-yl)-3-[3-(4-trifluoromethylphenyl)-ureido]phenyl}-4,4,4-trifluorobutyric Acid], in that order: 0.415 µM and greater than 100 µM.
`CC1CC(C)CN(c2ccc(C(CC(=O)O)C(F)(F)F)cc2NC(=O)Nc2ccc([N+](=O)[O-])cc2)C1` (stereo not shown) [i24, 3-{4-(3,5-dimethylpiperidin-1-yl)-3-[3-(4-nitrophenyl)ureido]phenyl}-4,4,4-trifluorobutyric Acid]: the “fold more potent than compound BMS-E30 (IDO1)” value in data set [1] (setting [6]) stood at 55 fold. The IC50 in [1] was 0.157 µM; in data set [2] it was greater than 100 µM.
As to `Cn1cc(C[C@@H](N)C(=O)O)c2ccccc21` [indoximod], the IC50 with pathway was 0.45 µM.
In the case of `CC1CC(C)CN(c2ccc(C(CC(=O)O)C(F)(F)F)cc2NC(=O)Cc2ccc(C#N)cc2)C1` (stereo not shown) [j1, 3-[3-[2-(4-cyanophenyl)acetylamino]-4-(3,5-dimethylpiperidin-1-yl)-phenyl]-4,4,4-trifluorobutyric Acid], the “IDO1 inhibitory activity (in words)” value in data set [1] is “no inhibitory activity”. Moreover, the IC50 in [1] and in data set [2] was greater than 100 µM in each case.
As for `CC1CC(C)CN(c2ccc(C(CC(=O)O)C(F)(F)F)cc2NC(=O)Cc2ccc(C(F)(F)F)cc2)C1` (stereo not shown) [j2, 3-{4-(3,5-dimethylpiperidin-1-yl)-3-[2-(4-trifluoromethylphenyl)-acetylamino]phenyl}-4,4,4-trifluorobutyric Acid], in data set [1], the “IDO1 inhibitory activity (in words)” value is “no inhibitory activity” and the IC50 was greater than 100 µM. For the same compound, in data set [2], the IC50 is greater than 100 µM.
Consider `CC1CC(C)CN(c2ccc(C(CC(=O)O)C(F)(F)F)cc2NC(=O)Cc2ccc([N+](=O)[O-])cc2)C1` (stereo not shown) [j3, 3-{4-(3,5-dimethylpiperidin-1-yl)-3-[2-(4-nitrophenyl)acetylamino]-phenyl}-4,4,4-trifluorobutyric Acid], for which, in data set [1], the “IDO1 inhibitory activity (in words)” value is “no inhibitory activity” and the IC50 was greater than 100 µM. In addition, the IC50 in [2] was greater than 100 µM.
